From patent US11166958B2, “4-pyrazin-2-ylmethyl-morpholine derivatives and the use thereof as medicament” (Boehringer Ingelheim International GmbH, priority 2018, dated 2021) come the findings set out here.

What is called inhibition is the relative decrease from the control value, in per cent. For orientation: Papp A→B means how fast a substance crosses the layer from the apical side. The low end stands for poor permeation, the high end for ready permeation.

The target of one series is Nav1.6 channel (Homo sapiens (Human), UniProt Q9UQD0). The series is described as follows: Nav1.6 inhibition, IonWorks Quattro electrophysiology. Conditions: for inhibition at 1 µM / inhibition at 5 µM: normalized to vehicle (0%) and maximal inhibition control (100%). Format: cell-based. The procedure: IonWorks Quattro electrophysiological platform
The compounds were prepared in DMSO at 300× the final assay concentrations of 1 and 5 μM.
The 300× DMSO stock solutions were transferred into assay plates where 2 μl per well of each 300× stock solution were placed. All assay plates were stored at −80° C. until the day of assay.
On the day of the assay, the appropriate assay plate was thawed at room temperature, centrifuged, and 198 μl of external recording solution was added and mixed thoroughly. This provided a 1:100 dilution. A further 1:3 dilution occurred upon addition to the cells in the IonWorks Quattro electrophysiological platform, giving a 1:300 dilution in total. On each assay plate, at least 8 wells were reserved for vehicle control (0.3% DMSO) and at least 8 wells for each positive control specific to the cell line tested. The positive controls were tested at a maximal blocking and an approximate IC50 concentration. As positive control Lidocaine at concentrations of 30 and 1000 μM was used.
The solutions for recording Nav1.6 currents were as follows:
Amphotericin B was used to obtain electrical access to the cell interior at a final concentration of 200 μg/ml in internal recording solution.
State-dependent inhibition: Sodium channels when held at depolarized potential or long test pulse, the channels open and inactivate and then stay inactivated until the membrane potential is stepped back to hyperpolarized potentials, when the inactivated channels recover from inactivation into closed state.
Cells were held at −120 mV. In order to completely inactivate the sodium channels (pulse 1), the cells were pulsed to +0 mV for 2500 ms and stepped back to −120 mV for 10 ms (to completely recover from inactivation, however channels that had drugs bound to them will not recover from inactivation) before stepping to +0 mV for 20 ms (pulse 2).
Assay Control Results Both the positive and vehicle control data associated with each cell line assayed are shown below as an example. The mean is shown for each positive and negative control as solid symbol with the total number of individual well replicates given next to the solid symbol. In addition, the individual data of each well are shown on the graph as open symbols so that the variation about the mean value can be readily assessed.
Shown below are the assay controls for the Nav1.6 IonWorks Quattro assay.
Tables 3 and 4 show the normalized percentage inhibition of Nav1.6 channel. […] (see also the figure Assay Control Results above).
On the technique in general: The patch-clamp technique gives a direct electrical read-out from membranes.

The target in another series is human MDR1 (P-gp) (Homo sapiens (Human), UniProt P08183). As to the kind of experiment: MDCK assay P-gp: permeability across MDCK-MDR1 monolayers. Format: in vitro ADME. Conditions: for Papp A→B at 2 h: MDCK-MDR1, apical-to-basal, pH 7.4; for efflux ratio at 2 h: pH 7.4, MDCK-MDR1, Papp (b-a) / Papp (a-b), read-out: efflux ratio PEBA/PEAB. As to the method: The MDCK assays provide information on the potential of a compound to pass the blood brain barrier. Permeability measurements across polarized, confluent MDCK-MDR1 cell monolayers grown on permeable filter supports are used as an in vitro absorption model: apparent permeability coefficients (PE) of the compounds across the MDCK-MDR1 cell monolayers are measured (pH 7.4, 37° C.) in apical-to-basal (AB) and basal-to-apical (BA) transport direction. The AB permeability (PEAB) represents drug absorption from the blood into the brain and the BA permeability (PEBA) drug efflux from the brain back into the blood via both, passive permeability as well as active transport mechanisms mediated by efflux and uptake transporters that are expressed on the MDCK-MDR1 cells, predominantly by the overexpressed human MDR1. Identical or similar permeabilities in both transport directions indicate passive permeation (PEBA/PEAB≤1), vectorial permeability points to additional active transport mechanisms. Higher PEBA than PEAB (PEBA/PEAB>5) indicates the involvement of active efflux mediated by MDR1, which might compromise the goal to achieve sufficient brain exposure. Therefore, this assay provides valuable support for selection of compounds applicable for further in vivo testing. High permeability not limited by efflux at the blood brain barrier is a favourable characteristic for compounds that are to be used for drugs acting primarily in the CNS.
Apparent permeability coefficients (Papp) of the compounds across the MDCK-MDR1 monolayers (MDCKII cells transfected with human MDR1 cDNA expression plasmid) are measured in apical-to-basal (AB) and basal-to-apical (BA) direction.
MDCK-MDR1 cells (6×10^5 cells/cm^2) are seeded on filter inserts (Corning, Transwell, polycarbonate, 0.4 μm pore size) and cultured for 9 to 10 days. Compounds dissolved in DMSO stock solution (1-20 mM) are diluted with HTP-4 aqueous buffer (128.13 mM NaCl, 5.36 mM KCl, 1 mM MgSO4, 1.8 mM CaCl2, 4.17 mM NaHCO3, 1.19 mM Na2HPO4, 0.41 mM NaH2PO4, 15 mM HEPES, 20 mM glucose, pH 7.4) supplemented with 0.25% BSA to prepare the transport solutions (final concentration: 1 or 10 μM, final DMSO<=0.5%). The transport solution is applied to the apical or basolateral donor side for measuring A-B or B-A permeability, respectively. The receiver side contains HTP-4 buffer supplemented with 0.25% BSA. Samples are collected at the start and end of experiment from the donor and at various time intervals for up to 2 hours also from the receiver side for concentration measurement by HPLC-MS/MS (RapidFire High-throughput MS System (Agilent) coupled to QTrap 6500 (AB Sciex) or TSQ Vantage (Thermo Scientific)). Sampled receiver volumes are replaced with fresh receiver solution. Efflux ratio is calculated dividing the Papp (b-a) values by the Papp (a-b) values.

Sequence of human MDR1 (P-gp) (P08183 whole entry): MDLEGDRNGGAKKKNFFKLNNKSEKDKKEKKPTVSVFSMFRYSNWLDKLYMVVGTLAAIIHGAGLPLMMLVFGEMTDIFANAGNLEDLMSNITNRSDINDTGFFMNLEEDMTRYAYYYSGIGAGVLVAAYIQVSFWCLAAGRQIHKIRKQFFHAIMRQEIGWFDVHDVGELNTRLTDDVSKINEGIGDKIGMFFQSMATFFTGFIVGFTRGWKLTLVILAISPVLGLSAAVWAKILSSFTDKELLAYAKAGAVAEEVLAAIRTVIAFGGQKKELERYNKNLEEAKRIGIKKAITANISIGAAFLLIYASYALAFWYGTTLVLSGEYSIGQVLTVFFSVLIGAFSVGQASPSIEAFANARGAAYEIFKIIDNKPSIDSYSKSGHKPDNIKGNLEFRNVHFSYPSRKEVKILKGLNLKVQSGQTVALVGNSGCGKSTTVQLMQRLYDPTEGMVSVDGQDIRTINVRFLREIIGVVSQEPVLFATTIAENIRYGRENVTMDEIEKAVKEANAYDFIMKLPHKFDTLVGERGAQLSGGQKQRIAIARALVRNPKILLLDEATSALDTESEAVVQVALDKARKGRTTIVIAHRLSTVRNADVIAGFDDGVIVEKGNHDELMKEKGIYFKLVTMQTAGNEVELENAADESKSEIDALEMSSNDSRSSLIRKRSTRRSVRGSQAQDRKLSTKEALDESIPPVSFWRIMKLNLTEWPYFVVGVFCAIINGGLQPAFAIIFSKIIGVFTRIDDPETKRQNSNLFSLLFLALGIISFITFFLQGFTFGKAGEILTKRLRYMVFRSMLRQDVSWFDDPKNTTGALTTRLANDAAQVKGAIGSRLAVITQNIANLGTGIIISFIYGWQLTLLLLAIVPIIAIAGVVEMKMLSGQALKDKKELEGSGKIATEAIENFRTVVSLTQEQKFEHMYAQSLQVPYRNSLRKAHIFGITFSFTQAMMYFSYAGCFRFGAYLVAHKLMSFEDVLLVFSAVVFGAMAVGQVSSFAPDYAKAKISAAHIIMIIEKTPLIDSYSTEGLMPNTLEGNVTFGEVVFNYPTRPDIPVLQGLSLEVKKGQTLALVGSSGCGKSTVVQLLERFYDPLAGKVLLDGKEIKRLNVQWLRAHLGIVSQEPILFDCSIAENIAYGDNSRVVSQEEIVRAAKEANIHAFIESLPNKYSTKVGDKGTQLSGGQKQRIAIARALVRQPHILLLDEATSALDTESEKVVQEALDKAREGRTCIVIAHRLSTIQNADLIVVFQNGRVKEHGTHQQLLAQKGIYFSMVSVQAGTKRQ
Sequence of Nav1.6 channel (Q9UQD0 whole entry): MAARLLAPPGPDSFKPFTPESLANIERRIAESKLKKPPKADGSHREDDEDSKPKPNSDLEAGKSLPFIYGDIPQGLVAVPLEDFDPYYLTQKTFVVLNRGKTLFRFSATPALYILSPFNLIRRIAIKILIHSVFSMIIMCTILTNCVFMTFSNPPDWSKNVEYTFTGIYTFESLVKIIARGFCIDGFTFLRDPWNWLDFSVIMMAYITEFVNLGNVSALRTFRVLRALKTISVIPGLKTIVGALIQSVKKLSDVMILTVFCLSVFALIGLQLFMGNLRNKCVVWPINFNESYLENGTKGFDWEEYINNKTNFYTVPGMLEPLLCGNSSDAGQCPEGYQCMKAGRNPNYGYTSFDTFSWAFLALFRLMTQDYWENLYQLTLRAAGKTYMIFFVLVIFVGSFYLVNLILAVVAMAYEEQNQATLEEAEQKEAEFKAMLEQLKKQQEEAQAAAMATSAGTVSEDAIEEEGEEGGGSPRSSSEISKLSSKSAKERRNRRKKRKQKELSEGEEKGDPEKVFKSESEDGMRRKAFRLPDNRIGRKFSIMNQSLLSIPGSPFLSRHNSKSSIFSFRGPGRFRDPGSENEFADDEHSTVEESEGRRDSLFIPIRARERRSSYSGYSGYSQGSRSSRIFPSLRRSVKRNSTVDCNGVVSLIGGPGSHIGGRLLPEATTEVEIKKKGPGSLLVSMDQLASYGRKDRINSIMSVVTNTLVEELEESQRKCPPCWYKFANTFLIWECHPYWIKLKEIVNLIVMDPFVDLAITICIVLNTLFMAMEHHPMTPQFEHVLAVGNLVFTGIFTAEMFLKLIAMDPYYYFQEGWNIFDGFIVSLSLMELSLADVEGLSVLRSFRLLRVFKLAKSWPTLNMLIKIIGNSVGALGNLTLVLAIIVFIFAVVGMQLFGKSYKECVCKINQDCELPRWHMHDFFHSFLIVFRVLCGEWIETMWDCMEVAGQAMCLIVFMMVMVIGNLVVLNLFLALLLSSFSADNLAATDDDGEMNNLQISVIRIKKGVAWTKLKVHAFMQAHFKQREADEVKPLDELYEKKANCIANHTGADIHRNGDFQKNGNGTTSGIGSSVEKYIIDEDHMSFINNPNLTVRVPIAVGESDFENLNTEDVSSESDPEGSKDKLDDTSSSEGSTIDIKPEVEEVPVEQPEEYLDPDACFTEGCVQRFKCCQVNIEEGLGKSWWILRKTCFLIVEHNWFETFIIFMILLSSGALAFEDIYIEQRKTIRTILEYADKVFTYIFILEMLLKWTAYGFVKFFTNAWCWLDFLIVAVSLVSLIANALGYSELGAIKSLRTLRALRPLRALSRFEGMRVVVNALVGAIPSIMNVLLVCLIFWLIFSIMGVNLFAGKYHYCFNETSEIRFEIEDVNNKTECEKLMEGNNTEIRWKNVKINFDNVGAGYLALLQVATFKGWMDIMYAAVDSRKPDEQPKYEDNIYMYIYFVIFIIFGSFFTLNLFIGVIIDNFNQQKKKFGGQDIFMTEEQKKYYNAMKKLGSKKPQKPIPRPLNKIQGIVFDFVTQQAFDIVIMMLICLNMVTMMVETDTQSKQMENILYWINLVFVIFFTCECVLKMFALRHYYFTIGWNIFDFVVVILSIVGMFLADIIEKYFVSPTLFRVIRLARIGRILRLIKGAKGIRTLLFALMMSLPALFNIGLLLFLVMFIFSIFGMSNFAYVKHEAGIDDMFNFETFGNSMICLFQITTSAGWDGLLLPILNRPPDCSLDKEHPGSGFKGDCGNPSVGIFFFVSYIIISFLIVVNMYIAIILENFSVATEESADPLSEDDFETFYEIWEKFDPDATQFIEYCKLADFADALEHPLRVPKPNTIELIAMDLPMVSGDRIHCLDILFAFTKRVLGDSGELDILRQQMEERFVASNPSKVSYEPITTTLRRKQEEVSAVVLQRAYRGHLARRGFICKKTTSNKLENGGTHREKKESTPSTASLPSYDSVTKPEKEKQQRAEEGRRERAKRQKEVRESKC

For `CNC(=O)[C@@H]1CN(Cc2cnc(Oc3ccc(Cl)cc3)cn2)CCO1` [Example 7], on Nav1.6 channel, the inhibition at 1 µM was -9% and the inhibition at 5 µM was -15%. Also, the “inhibition of the Nav 1.6 channel” value at Nav1.6 channel (at 5 μM) is on record as “not showing any significant inhibition”. On human MDR1 (P-gp), the Papp A→B at 2 h is 66 ×10⁻⁶ cm/s and the efflux ratio at 2 h came to 0.7.

Turning to `CNC(=O)[C@@H]1CN(Cc2cnc(Oc3ccc(F)cc3)cn2)CCO1` [Example 1], on Nav1.6 channel, the inhibition at 1 µM was -9% and the inhibition at 5 µM worked out at 0.5%. Further, at human MDR1 (P-gp), the apparent permeability from apical to basolateral (Papp A→B) at 2 h was determined as 59 ×10⁻⁶ cm/s and the efflux ratio at 2 h came to 0.7.

Regarding `CNC(=O)[C@@H]1CN(Cc2cnc(Oc3ccc(Cl)cc3F)cn2)CCO1` [Example 5], on Nav1.6 channel, the inhibition at 1 µM is -3.9% and the inhibition at 5 µM amounted to 3.7%. Besides, on human MDR1 (P-gp), the Papp A→B at 2 h stood at 59 ×10⁻⁶ cm/s and the efflux ratio at 2 h turned out to be 0.8.

For the compound `CCNC(=O)[C@@H]1CN(Cc2cnc(Oc3ccc(C)cc3F)cn2)CCO1` [Example 31], at Nav1.6 channel, the inhibition at 1 µM is -5.8% and the inhibition at 5 µM is -7%. Moreover, at human MDR1 (P-gp), the apparent permeability from apical to basolateral (Papp A→B) at 2 h is 66 ×10⁻⁶ cm/s and the efflux ratio at 2 h was determined as 0.6.

On to `CNC(=O)[C@@H]1CN(Cc2cnc(Oc3ccc(F)cc3C)cn2)CCO1` [Example 8], for which, on Nav1.6 channel, the inhibition at 1 µM was 3% and the inhibition at 5 µM was 1.1%. Also, at human MDR1 (P-gp), the apical-to-basolateral permeability (Papp A→B) at 2 h turned out to be 70 ×10⁻⁶ cm/s and the efflux ratio at 2 h turned out to be 0.6.

On to `CNC(=O)[C@@H]1CN(Cc2cnc(Oc3ccc(C)cc3)cn2)CCO1` [Example 3], for which, on Nav1.6 channel, the inhibition at 1 µM stood at 4.6% and the inhibition at 5 µM came out at 6.8%. Further, at human MDR1 (P-gp), the Papp A→B at 2 h came to 75 ×10⁻⁶ cm/s and the efflux ratio at 2 h stood at 0.7.

In the case of `CCNC(=O)[C@@H]1CN(Cc2cnc(Oc3ccccc3Cl)cn2)CCO1` [Example 33], on Nav1.6 channel, the inhibition at 1 µM was -10.5% and the inhibition at 5 µM was -6.6%. Besides, at human MDR1 (P-gp), the Papp A→B at 2 h came out at 59 ×10⁻⁶ cm/s and the efflux ratio at 2 h was found to be 0.7.

Turning to `CNC(=O)[C@@H]1CN(Cc2cnc(Oc3ccc(C)cc3C)cn2)CCO1` [Example 4], at Nav1.6 channel, the inhibition at 1 µM turned out to be 3.4% and the inhibition at 5 µM worked out at 5%. On human MDR1 (P-gp), the apical-to-basolateral permeability (Papp A→B) at 2 h is 61 ×10⁻⁶ cm/s and the efflux ratio at 2 h was 0.7.

Take `CNC(=O)[C@@H]1CN(Cc2cnc(Oc3ccc(C)cc3F)cn2)CCO1` [Example 2]: on Nav1.6 channel, the inhibition at 1 µM was -4.4% and the inhibition at 5 µM is -4%. Further, at human MDR1 (P-gp), the Papp A→B at 2 h amounted to 76 ×10⁻⁶ cm/s and the efflux ratio at 2 h came to 0.6.

On to `CNC(=O)[C@@H]1CN(Cc2cnc(Oc3ccccc3Cl)cn2)CCO1` [Example 18], for which, on Nav1.6 channel, the inhibition at 1 µM was -5% and the inhibition at 5 µM was -10%. In addition, at human MDR1 (P-gp), the apparent permeability from apical to basolateral (Papp A→B) at 2 h was 61 ×10⁻⁶ cm/s and the efflux ratio at 2 h was found to be 0.8.

For `CNC(=O)[C@@H]1CN(Cc2cnc(Oc3ccccc3F)cn2)CCO1` [Example 9], at Nav1.6 channel, the inhibition at 1 µM was found to be 0% and the inhibition at 5 µM was found to be 4.6%. For the same compound, at human MDR1 (P-gp), the apical-to-basolateral permeability (Papp A→B) at 2 h amounted to 62 ×10⁻⁶ cm/s and the efflux ratio at 2 h stood at 0.9.

On to `CNC(=O)[C@@H]1CN(Cc2cnc(Oc3ccc(F)cc3F)cn2)CCO1` [Example 6], for which, at Nav1.6 channel, the inhibition at 1 µM amounted to 5.6% and the inhibition at 5 µM stood at 0.2%. For the same compound, at human MDR1 (P-gp), the Papp A→B at 2 h was 71 ×10⁻⁶ cm/s and the efflux ratio at 2 h came to 0.8.

On to `CCNC(=O)[C@@H]1CN(Cc2cnc(Oc3ccc(F)cc3F)cn2)CCO1` [Example 30], for which, at Nav1.6 channel, the inhibition at 1 µM is -13.4% and the inhibition at 5 µM is -9.4%. Moreover, at human MDR1 (P-gp), the apical-to-basolateral permeability (Papp A→B) at 2 h came to 81 ×10⁻⁶ cm/s and the efflux ratio at 2 h amounted to 0.4.
